The source of these data is patent publication US20220168384A1, “Anti-Bacterial Combination Therapy” (McMaster University, priority 2019, published 2022).

Where two headings read alike, the source gives them in different places.

The test system of assay [1] is P. aeruginosa PA14. In words: Dose response and checkerboard assays against PA14. It is filed as cell-based, Pseudomonas aeruginosa. Conditions: for synergy with DSX: checkerboard of DSX with antibiotic. As for the experimental part: Checkerboard assays were set-up using Nunc 96-well plates in an 8-well by 8-well format. Two columns were allocated for vehicle controls and two columns for sterility controls. Vehicle controls contained 2 μL DMSO plus 2 μL DFP solvent for checkerboards with TS and DFP or 4 μL DMSO for TS and DSX, in 146 μL of 10:90 medium or 10% serum inoculated with PA14 or PAO1-KP as described in Growth Curves. Sterile controls contained the same components in 10:90 medium or 10% serum, without cells. Serial dilutions of TS—with 17 μg/mL being the highest final concentration—were added along the y axis of the checkerboard (increasing concentration from bottom to top) whereas serial dilutions of DFP or DSX—with 512 μg/mL being the highest final concentration—were added along the x axis (increasing concentration from left to right). The final volume of each well was 150 μL and each checkerboard was repeated at least three times. Plates were incubated and the final OD600 determined as detailed above.
Culture conditions, growth assays, dose response and checkerboard assays using P. aeruginosa PA14 were performed as described in Example 1. Briefly, overnight cultures were grown in LB for 16 h, 37° C., 200 rpm then subcultured (1:500 dilution) into 10:90 for 6 h. Subcultures were standardized to OD600 of 0.10 and diluted 1:500 in fresh 10:90 before use. For the dose response assay, serial dilutions of compounds were added at 75 times the final concentration and diluted with 10:90 with cells to reach the desired final concentration. This was done in triplicate for technical replicates. Vehicle and sterile controls were included. The checkerboard assay was done similarly to the dose response assay but in an 8×8 format in a 96-well Nunc plate, with concentration of one drug increasing along the y-axis and the other along the x-axis. Sterility and vehicle controls were included with two columns allocated for each control. At least three biological replicates were repeated for the dose response and checkerboard assays.

Assay [2] has as its system P. aeruginosa PA14. In words: Thiopeptide + DSX checkerboard and dose-response assays. It is filed as cell-based, Pseudomonas aeruginosa. As to conditions: thiopeptide + DSX checkerboard, 10:90. As for the experimental part: Culture conditions, checkerboard assays using P. aeruginosa PA14 and dose-response assays were performed as described in Example 1. In addition to TS, other thiopeptides tested were siomycin A (SM), thiocillin I (TC), micrococcin P1 (MC), nosiheptide (NH), berninamycin A (BER), and geninthiocin A (GEN). For dose response assays of the combinations conducted in 10:90, DSX concentration was constant at 64 μg/mL.

Where [3] appears, read: checkerboard, IC50 isobolograms, PA14, 10:90.

For `Cc1nc(C)c(C)nc1C` [2,3,5,6-tetrametylpyrazine, 2,3,5,6-Tetramethylpyrazine], in assay [1] (setting [3]), the “synergy with TS” value was “None”.
`C=C(NC(=O)C(=C)NC(=O)c1ccc2c(n1)-c1coc(n1)C(=C)NC(=O)C(=C)NC(=O)c1nc(oc1C)C(=C)NC(=O)[C@H](C(C)(C)O)NC(=O)C(=C)NC(=O)c1nc(oc1C)/C(=C/C)NC(=O)[C@H]([C@@H](C)O)NC(=O)c1csc-2n1)C(N)=O` [BER, berninamycin A]: in assay [2], the “synergy with DSX” value was “did not synergize”.
`O=C(N[C@H](CO)[C@H](O)c1ccc([N+](=O)[O-])cc1)C(Cl)Cl` [Chloramphenicol]: the “synergy with DSX” value in assay [1] (PA14) is “No synergy”.
As for `COc1cc(/C=C/C(=O)CC(=O)/C=C/c2ccc(O)c(OC)c2)ccc1O` [Curcumin], the “synergy with TS” value in assay [1] (setting [3]) is given as “None”.
In the case of `C[C@H]1c2cccc(O)c2C(=O)C2=C(O)[C@]3(O)C(=O)C(C(N)=O)=C(O)[C@@H](N(C)C)[C@@H]3[C@@H](O)[C@@H]21` [DOXY, Doxycycline], the one-eighth of MIC against PA14 (test concentration) in assay [1] (Pseudomonas aeruginosa, PA14, concentration used in clinical isolate testing, read-out: ⅛^th the MIC of PA14) turned out to be 1 µg/mL.
For `O=[N+]([O-])[O-].O=[N+]([O-])[O-].O=[N+]([O-])[O-].[Ga+3]` [GN, Gallium Nitrate], in assay [1], the “relative potency of synergy with TS” value was “weakest” and the “synergy with TS” value is “synergized”.
Consider `C=C(NC(=O)c1csc(-c2nc3c(cc2O)-c2nc(cs2)C(=O)NC(C(C)O)C(=O)N/C(=C\C)c2nc(cs2)C(=O)NC2CC(O)C(=O)OCc4cccc5[nH]c(c(C)c45)C(=O)SCC(NC(=O)c4csc2n4)c2nc-3cs2)n1)C(N)=O` (stereo not drawn) [NH, nosiheptide], for which the “synergy with DSX” value in assay [2] is “synergize”.
Same read-out and setting: the value for `C=C(NC(=O)C(=C)NC(=O)c1csc(C2=N[C@@H]3c4csc(n4)[C@H]4NC(=O)c5csc(n5)[C@H]([C@](C)(O)[C@@H](C)O)NC(=O)[C@H]5CSC(=N5)/C(=C/C)NC(=O)[C@H]([C@@H](C)O)NC(=O)c5csc(n5)[C@]3(CC2)NC(=O)[C@H](C)NC(=O)C(=C)NC(=O)C(=C)NC(=O)[C@H](C(C)C)N[C@@H]2C=Cc3c([C@H](C)O)cc(nc3[C@H]2O)C(=O)O[C@@H]4C)n1)C(N)=O` [SM, siomycin A] was “synergize”.
On the same count and under the same terms, the result for `C/C=C(\NC(=O)c1csc(-c2csc(-c3ccc4c(n3)-c3csc(n3)[C@H]([C@@H](C)O)NC(=O)c3csc(n3)[C@H](C(C)(C)O)NC(=O)c3csc(n3)/C(=C/C)NC(=O)[C@H]([C@@H](C)O)NC(=O)c3csc-4n3)n2)n1)C(=O)NC[C@@H](C)O` [TC, thiocillin I] reads “synergize”.
Take `O=C(O)[C@H]1O[C@@H](Oc2cc3oc(-c4ccccc4)cc(=O)c3c(O)c2O)[C@H](O)[C@@H](O)[C@@H]1O` [baicalin, Baicalin]: the “synergy with TS” value in assay [1] (setting [3]) was “None”.
`O=C(O[C@@H]1Cc2c(O)cc(O)cc2O[C@@H]1c1cc(O)c(O)c(O)c1)c1cc(O)c(O)c(O)c1` [epigallocatechin gallate, Epigallocatechin Gallate]: the “synergy with TS” value in assay [1] (setting [3]) is “None”.
`COc1cc(/C=C/C(=O)O)ccc1O` [ferulic acid, Ferulic Acid]: the “synergy with TS” value in assay [1] (setting [3]) is given as “None”.
On the same count and under the same terms, the value for `O=C(CCc1ccc(O)cc1)c1c(O)cc(O)cc1O` [phloretin, Phloretin] was “None”.
As for `O=P([O-])([O-])O[C@H]1[C@H](OP(=O)([O-])O)[C@H](OP(=O)([O-])[O-])[C@H](OP(=O)([O-])O)[C@@H](OP(=O)([O-])[O-])[C@@H]1OP(=O)([O-])O.[Na+].[Na+].[Na+].[Na+].[Na+].[Na+].[Na+].[Na+].[Na+]` [sodium phytate, Sodium phytate], the “synergy with TS” value in assay [1] was “None”.
As for `NC[C@H]1O[C@H](O[C@H]2[C@H](O)[C@@H](O[C@H]3O[C@H](CO)[C@@H](O)[C@H](N)[C@H]3O)[C@H](N)C[C@@H]2N)[C@H](N)C[C@@H]1O` [tobramycin], the “synergy with DSX” value in assay [1] (PA14) is “No synergy”.
With geninthiocin A, the “synergy with DSX” value in assay [2] was “did not synergize”.
As to micrococcin P1 [MP], the “synergy with DSX” value in assay [2] is “synergize”.
